According to patent publication US10961274B2, “Self-assembling peptides comprising non-ionic polar amino acids for anti-adhesion” (3-D Matrix, Ltd., priority 2015, dated 2021):
Peptide text beside a SMILES is read from it.

What was measured:
[1] = Atomic Force Microscopy (AFM) morphological study of peptide nano structures; format: physicochemical; conditions: 100 μM peptide solution on mica, air-dried, tapping mode
Method: Atomic Force Microscopy (AFM) images of ST14 and T14 peptides were investigated to visualize their nano structures. […] Each sample was left on the mica for about 30 seconds (s) and then rinsed with aliquots of 100 μl of Milli-Q (ultrapure) water to remove unattached peptides. The sample on the mica surface was then air-dried for AFM observation. AFM was performed with Asylum-1 MFP-3D AFM System (Asylum Research, Santa Barbara, Calif.) using a tapping mode. The images utilized an Olympus Si tip (AC240FS). The cantilever's free resonance frequency was 70 kHz.

[2] = Autoclave stability/sterilization, mass spectrometry before and after autoclave; format: physicochemical; conditions: 121° C. for 25 min, high pressure saturated steam; N-terminus and C-terminus not protected
Excerpt: Sterilization is a very important step in the manufacturing process for all biomaterials, including the self-assembling peptide solutions.

[3] = Dissolution in deionized water and visual appearance of peptide solution; format: physicochemical
Method: ST14 and T14 were tested for dissolution in deionized water and appearance in solution at various concentrations.

[4] = pH of peptide solutions in deionized water; format: physicochemical
Method: The pH of the peptides in deionized water to provide a peptide solution were measured at various concentrations. […] ST14 and T14 were tested. The recorded pH values ranged from about 1.9 to about 2.5.

[5] = Congo Red assay of gel formation in PBS buffer (pH 7.4); format: physicochemical
Method: A Congo Red assay was performed to determine gel formation of peptide solutions in a PBS buffer solution (pH 7.4). 100 μl of each gel at varying concentrations were plated on a glass slide. After 30 seconds, 500 μl of a 1% Congo Red solution in PBS buffer (pH 7.4) was added around and on top of each of the gel aliquots and then the excess Congo Red solution was wiped off prior to examination.
ST14 and T14 were plated at varying concentrations of 0.5%, 1.0%, 1.5%, 2.0%, 2.5% and 5.0%. Visualization of gel formation determined the success or failure of gelation at each concentration.

[6] = Rheological properties at various concentrations (stress sweep, rheometer); format: physicochemical; conditions: 37° C.; for Loss Modulus (G′) / Storage Modulus (G′): at 1 Pa of oscillation stress; for Loss Modulus (G′) / Storage Modulus (G′) / Max. Viscosity (max η′) / Yield Stress: 10 rad/s; for Max. Viscosity (max η′) / Yield Stress: stress sweep
Method: The rheological properties of the ST14 were evaluated at various concentrations using a rheometer (AR500, TA Instruments) with 40 mm plates. Peptide solution (700 μL) was placed on the rheometer plate and excess solution was gently removed by Kimwipes; measurements were performed after 2 minutes of relaxation time at 37° C. The storage modulus, loss modulus, and viscosity (η′) were measured at 37° C. with the plates placed at a measuring geometry gap of 300 μm, and stress sweep tests were performed at 0.1 Pa˜1000 Pa of oscillation stress with angular frequency at 10 rad/s.

[7] = test system: C57 BL/6 Mouse Mesenchymal Stem Cells (mMSCs); assay: Cell viability (cytotoxicity) assay in hydrogel drop cultures; format: cell-based; conditions: 5 million cells/ml, 10% sucrose, peptide concentration over 0.75% (tested 0.50% to 1.5%)
Method: A cell viability (cytotoxicity) assay was performed to measure the ability of ST14 o support the viability of C57 BL/6 Mouse Mesenchymal Stem Cells (mMSCs)—a frequently-used cell line in hydrogel tissue culture systems. The hydrogel was prepared at a concentration of 2.5% and then diluted to concentrations of 1.5%, 1.25%, 1.0%, 0.75%, and 0.50% with sucrose, so that the final concentration of sucrose was 10%. Cells were washed and re-suspended in 10% sucrose to a final concentration of 5 million cells/ml. Cells were centrifuged and the supernatant was removed. The cells were re-suspended in each of the concentrations of hydrogels in 10% sucrose. The protocol was then followed for plating drop cultures and subsequent isolation as described in the PuraMatrix® Guidelines for Use (BD/Corning website).

[8] = Effect of DMEM treatment on rheological properties (storage modulus); format: physicochemical; conditions: 1% peptide; DMEM (pH 7.4) for 2 minutes; 1 Pa, 10 rad/s; 37° C.
Method: The effects of Dulbecco's modified Eagle's medium (DMEM) (pH 7.4) on the rheological properties of ST14 were evaluated on a rheometer (AR500, TA Instruments) with 40 mm plates. DMEM is a cell culture medium that contains 6.4 g/L of NaCl, 3.4 g/L NaHCO3 (sodium bicarbonate), minor amounts of other salts, various amino acids, and 4.5 g/L of glucose. The pH of DMEM is 7.2±0.2 and the osmolality is 335±30 mOsm/Kg H2O; both measurements are close to human physiological fluids such as blood. Peptide solutions (1%) were kept in 4° C. for at least 48 hours before testing. To perform the experiment, 1 mL of peptide solution was gently pipetted and placed on the plate of the rheometer. 2 mL of DMEM solution was gently added around the peptide solution. The peptide solution was treated with DMEM for two minutes, then the media was removed, and the plates were placed at a measuring geometry gap at around 450 μm. Measurements were performed at 37° C. after 2 min of relaxation time. Frequency tests were performed from 1 rad/s to 100 rad/s at 1 Pa of oscillation stress.
The rheological properties of ST14 (1%) were compared before and after DMEM treatment for 2 minutes in FIG. 14. […]

[9] = concentration 0.5% in deionized water
[10] = concentration 1.0% in deionized water
[11] = concentration 1.5% in deionized water
[12] = concentration 2.0% in deionized water
[13] = concentration 2.5% in deionized water

CC(O)C(N)C(=O)NC(C(=O)NC(C(=O)NC(C(=O)NC(C(=O)NC(C(=O)NC(C(=O)NC(C(=O)NC(C(=O)NC(C(=O)NC(C(=O)NC(C(=O)NC(C(=O)NC(C(=O)O)C(C)O)C(C)O)C(C)O)C(C)O)C(C)O)C(C)O)C(C)O)C(C)O)C(C)O)C(C)O)C(C)O)C(C)O)C(C)O (stereo not drawn) [Peptide T14]
AFM morphology (nano structure) [1]: Aggregates have been detected | degradation during autoclave treatment (mass spec) [2]: did not degrade | appearance of solution in deionized water ([3]; 1 percent w/v to 5 percent w/v): translucent | thickness of solution in deionized water ([3]; 5 percent w/v): formed a thick solution | pH [4, 9]: 2.5 | pH [4, 10]: 2.3 | pH [4, 11]: 2.2 | pH [4, 12]: 2.1 | pH [4, 13]: 2.0 | gel formation (Congo Red) ([5]; below 1%): did not form a gel

CC(O)C(NC(=O)C(CO)NC(=O)C(NC(=O)C(CO)NC(=O)C(NC(=O)C(CO)NC(=O)C(NC(=O)C(CO)NC(=O)C(NC(=O)C(CO)NC(=O)C(NC(=O)C(CO)NC(=O)C(NC(=O)C(N)CO)C(C)O)C(C)O)C(C)O)C(C)O)C(C)O)C(C)O)C(=O)O (stereo not drawn) [ST14] (H-STSTSTSTSTSTST-OH; configuration not given here)
AFM morphology (nano structure) [1]: forms self-assembled nanofibers | Loss Modulus (G′) ([6]; Concentration 1): 11.4 Pa | Storage Modulus (G′) ([6]; Concentration 1): 67 Pa | Max. Viscosity (max η′) ([6]; Concentration 1): 1.2 Pa-s | Yield Stress ([6]; Concentration 1): 5.0 Pa | Loss Modulus (G′) ([6]; Concentration 1.5): 9.8 Pa | Storage Modulus (G′) ([6]; Concentration 1.5): 94 Pa | Max. Viscosity (max η′) ([6]; Concentration 1.5): 1.5 Pa-s | Yield Stress ([6]; Concentration 1.5): 7.9 Pa | Loss Modulus (G′) ([6]; Concentration 2): 17.3 Pa | Storage Modulus (G′) ([6]; Concentration 2): 136 Pa | Max. Viscosity (max η′) ([6]; Concentration 2): 2.0 Pa-s | Yield Stress ([6]; Concentration 2): 10.0 Pa | Loss Modulus (G′) ([6]; Concentration 2.5): 17.1 Pa | Storage Modulus (G′) ([6]; Concentration 2.5): 167 Pa | Max. Viscosity (max η′) ([6]; Concentration 2.5): 2.2 Pa-s | Yield Stress ([6]; Concentration 2.5): 15.9 Pa | storage modulus, yield stress, and max. viscosity versus concentration ([6]; concentrations 1 to 2.5): increased with increasing concentration | cell viability [7]: significantly decreased | degradation during autoclave treatment (mass spec) [2]: did not degrade | appearance of solution in deionized water ([3]; 1 percent w/v to 5 percent w/v): translucent | thickness of solution in deionized water ([3]; 1 percent w/v to 5 percent w/v): formed thick solutions | pH [4, 9]: 2.5 | pH [4, 10]: 2.2 | pH [4, 11]: 2.1 | pH [4, 12]: 2.0 | pH [4, 13]: 1.9 | fold increase of storage moduli after DMEM treatment [8]: 6.9 fold | gel formation (Congo Red) ([5]; 0.5%): did not form a gel
